In patent US20130172408A1, “Medicaments Based on Dinuclear Arene Ruthenium Complexes Comprising Bridging Thiolato, Selenolato or Alkoxo Ligands” (Universite de Neuchatel, priority 2010, published 2013):
Values joined by “and” are separate entries in the source; they are usually repeats but may differ in a detail not shown here. Identical values can stand only once. Like-named read-outs stand apart in the source and are kept apart here.

Columns and labels:
[1] = system: A2780 human ovarian cancer cells; test: MTT assay, inhibition of cell growth, A2780; format: cell-based
Procedure: (§1) Human A2780 and A2780cisR ovarian carcinoma cells were obtained from the European Centre of Cell Cultures (ECACC, Salisbury, UK) and maintained in culture as described by the provider. The cells were routinely grown in RPMI 1640 medium with GlutaMAX™ containing 5% foetal calf serum (FCS) and antibiotics (penicillin and streptomycin) at 37° C. and 5% CO2.
(§2) The antiproliferative activity of complexes 9-20 was evaluated against the human ovarian A2780 cancer cell line and its cisplatin-resistant derivative A2780cisR using the MTT assay, which measures mitochondrial dehydrogenase activity as an indication of cell viability. For the evaluation of growth inhibition tests, the cells were seeded in 96-well plates (25×10^3 cells per well) and grown for 24 h in complete medium. Complexes were dissolved in DMSO and added to the required concentration to the cell culture for 72 h incubation. Solutions of the compounds were applied by diluting a freshly prepared stock solution of the corresponding compound in aqueous RPMI medium with GlutaMAX™ (20 mM). Following drug exposure, 3-(4,5-dimethylthiazol-2-yl)-2,5-diphenyltetrazolium bromide (MTT) was added to the cells at a final concentration of 0.25 mg/mL and incubated for 2 h, then the culture medium was aspirated and the violet formazan (artificial chromogenic precipitate of the reduction of tetrazolium salts by dehydrogenases and reductases) dissolved in DMSO. The optical density of each well (96-well plates) was quantified three times in triplicates at 540 nm using a multiwall plate reader (iEMS Reader MF, Labsystems, US), and the percentage of surviving cells was calculated from the ratio of absorbance of treated to untreated cells. The IC50 values for the inhibition of cell growth were determined by fitting the plot of the logarithmic percentage of surviving cells against the logarithm of drug concentration using a linear regression function. The median value and the median absolute deviation were obtained from the Excel™ software (Microsoft™) and those values are reported in Table 2.
(§3) The toxicity of further compounds in accordance with the invention shown in FIGS. 9A and 9B and of the prior art compounds PA1 and PA2 was assessed as described in Example 6.

[2] = system: A2780cisR human ovarian cancer cells (cisplatin-resistant); test: MTT assay, inhibition of cell growth, A2780cisR; format: cell-based
Procedure: as §1, §2, §3

Solubility (qualitative) = format: physicochemical; settings: water and organic solvents
Source text: The spectroscopic data for the analogues [18]Cl, [19]Cl and [20]Cl is in excellent agreement with that reported previously Mashima et al., Schacht et al. Chérioux et al., cited above).

[3] = system: PLC/PRF/5 human liver cancer cells; settings: MTT assay, from JP 7089855; cited from earlier work
[4] = Catalytic oxidation of cysteine to cystine in aqueous solution
[5] = Stability by 1H NMR spectroscopy; format: physicochemical; settings: 12 hours at 37° C. in DMSO-d6, in D2O/DMSO-d6 (95:5), and in DMSO-d6 with two drops of RPMI 1640 medium containing 5% foetal calf serum
[6] = Catalytic oxidation of glutathione to glutathione disulfide in aqueous solution
[7] = 72 h incubation, MTT, median value (Table 2), read-out: IC50 A2780
[8] = as described in Example 6 (Table 3), read-out: Average IC50 A2780
[9] = 72 h incubation, MTT, median value (Table 2), read-out: IC50 A2780cisR
[10] = as described in Example 6 (Table 3), read-out: Average IC50 A2780cisR

Compound	IC50 [1, 7] [nM]	IC50 [1, 8] [nM]	IC50 [2, 9] [nM]	IC50 [2, 10] [nM]	further results
COc1ccc(C=CC(=O)OCCc2ccccc2)cc1.COc1ccc(C=CC(=O)OCCc2ccccc2)cc1.[Cl-].[Ru+2].[Ru+2].[S-]c1ccccc1.[S-]c1ccccc1.[S-]c1ccccc1 [[11]Cl, [trans-(C6H6—(CH2)2—O—C(O)—CH═CH—C6H4-p-O—CH3)2Ru2(SPh)3]^+]	820	815	1360	1360	
[(C6H6)2Ru2(SPh)3]^+ [[17]C1]	380		480		IC50 ([1]; as described in Example 6 (Table 3), listed as 17, read-out: Average IC50 A2780): 240 nM and 377 nM; Solubility (Solubility (qualitative)): soluble in water and in organic solvents; IC50 ([2]; as described in Example 6 (Table 3), listed as 17, read-out: Average IC50 A2780cisR): 253 nM and 477 nM
[(C6H6—(CH2)2—O—C(O)—C6H4-p-O—(CH2)6CH3)2Ru2(SPh)3]^+ [[9]Cl]	2200		2700		
Cc1c(C)c(C)[c-](C)c1C.Cc1c(C)c(C)[c-](C)c1C.[Ru+3].[Ru+3].[S-]c1ccccc1.[S-]c1ccccc1.[S-]c1ccccc1 [PA1, [(CsMes)2Ru2(p-SC6H5)3]^+, reference compound]					IC50 [3]: 131 µg/mL
COc1ccc(C=CC(=O)OCCCCc2ccccc2)cc1.COc1ccc(C=CC(=O)OCCCCc2ccccc2)cc1.[Cl-].[Ru+2].[Ru+2].[S-]c1ccccc1.[S-]c1ccccc1.[S-]c1ccccc1 [[12]Cl, [trans-(C6H6—(CH2)4—O—C(O)—CH═CH—C6H4-p-O—CH3)2Ru2(SPh)3]^+]	490	420	560	545	
CC1=C(C)C(C)C(C)=C1C.CC1=C(C)C(C)C(C)=C1C.Cc1ccc(S)cc1.Cc1ccc(S)cc1.Cc1ccc(S)cc1.[Ru+3].[Ru+3] [PA2, [(CsMe5)2Ru2(p-SC6H4Me)3]^+, reference compound]		1930		1550	
[Ru2(p-MeC6H4Pr^i)2(p-SC6H4OH)3]^+ [Compound 21]		533		1470	
Cc1c(C)c(C)c(C)c(C)c1C.Cc1c(C)c(C)c(C)c(C)c1C.[Cl-].[Ru+2].[Ru+2].[S-]c1ccccc1.[S-]c1ccccc1.[S-]c1ccccc1 [[19]Cl, [(C6Me6)2Ru2(SPh)3]^+]	400	433	1200	1200	
Cc1ccc(C(C)C)cc1.Cc1ccc(C(C)C)cc1.[Cl-].[Ru+2].[Ru+2].[S-]c1ccccc1.[S-]c1ccccc1.[S-]c1ccccc1 [[18]C1, [(p-^iPrC6H4Me)2Ru2(SPh)3]^+]	240		250		
[Ru2(p-C6Me6)2(p-SC6H4OH)3]^+ [Compound 22]		500		500	
[(p-^iPrC6H4Me)2Ru2(S-p-C6H4Me)3]^+ [[20]C1]	130	130	80	77	Catalysis of the reaction of Cysteine (Cys) to form Cystine [4]: very high efficiency; Stability (1H NMR signals) [5]: stable under these conditions; Catalysis of the reaction of Glutathione (GSH) to form glutathione disulfide (GSSG) [6]: very high efficiency
CC1=C(C)C(C)C(C)=C1C.CC1=C(C)C(C)C(C)=C1C.Sc1ccccc1.Sc1ccccc1.Sc1ccccc1.[Ru+3].[Ru+3] [PA1, [(CsMes)2Ru2(p-SC6H5)3]^+, reference compound]		3050		2190	
CCCCCCCOc1ccc(C(=O)OCCCCc2ccccc2)cc1.CCCCCCCOc1ccc(C(=O)OCCCCc2ccccc2)cc1.[Cl-].[Ru+2].[Ru+2].[S-]c1ccccc1.[S-]c1ccccc1.[S-]c1ccccc1 [[10]Cl, [(C6H6—(CH2)4—O—C(O)—C6H4-p-O—(CH2)6CH3)2Ru2(SPh)3]^+]	4900		5600		
